Assay results as given in patent US6727237B2, “Inhibitors of bacterial NAD synthetase” (priority 1998, dated 2004).
Where “and” joins values, the source holds several entries; their conditions need not be identical. Identical values can stand only once.

What was measured:
[1] = biological target: T1, bacterial NAD synthetase enzyme (Bacillus subtilis, UniProt P08164); assay: biochemical; type: biochemical
T1 sequence (P08164 2-272 limits assumed): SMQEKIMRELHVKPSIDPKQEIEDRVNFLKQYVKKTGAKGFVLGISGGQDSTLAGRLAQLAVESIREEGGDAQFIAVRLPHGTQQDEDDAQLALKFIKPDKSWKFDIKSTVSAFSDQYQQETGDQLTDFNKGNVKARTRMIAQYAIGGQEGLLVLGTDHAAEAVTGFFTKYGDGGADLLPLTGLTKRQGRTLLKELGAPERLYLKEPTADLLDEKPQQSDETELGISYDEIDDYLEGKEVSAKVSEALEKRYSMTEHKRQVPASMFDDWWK

[2] = tested on: Staphylococcus epidermitis; assay: Bacterial growth inhibition screen in LB media (absorbance 595 nm), percent inhibition; conditions: S. epidermitis
[3] = compound at 0.2 mM (Table 312A)

Structure (SMILES) | % Inhibition [1, 3] | % Inhibition ([2]; concentration screened 10 uM) | % Inhibition ([2]; concentration screened 100 uM) | % Inhibition ([1]; compound at 0.1 mM (Table 314))
c1ccc2[nH]c(CCCCCCC[n+]3cccc4ccccc43)cc2c1 [Compound 394] | 4.62% | 7.03% |  | 
CN(C)c1ccc(C(=O)OCCCCc2cc3cc(C(=O)c4ccccc4)ccc3[nH]2)cc1 [Compound 645] | 4.31% |  | 9.23% | 
O=[N+]([O-])c1cc([N+](=O)[O-])c2[nH]c(CCC[n+]3ccccc3)cc2c1 [Compound 306] | 33.93% | 4.32% |  | 
CC(=O)c1ccc2[nH]c(CCCCCC[n+]3ccc4ccccc4c3)cc2c1 [Compound 585] | 17.43% | 2.09% |  | 
Fc1ccc2[nH]c(CCC[n+]3cccc4ccccc43)cc2c1 [Compound 450] | 7.90% | 7.45% |  | 
O=C(c1ccccc1)c1ccc2[nH]c(CCCCOC(=O)c3ccccc3-c3ccccc3)cc2c1 [Compound 648] | 5.82% |  | 14.57% | 
CN(C)c1ccc(C(=O)OCCCCCCCCc2cc3cc(C(F)(F)F)ccc3[nH]2)cc1 [Compound 611] | 15.13% |  | 9.67% | 
O=C(c1ccccc1)c1ccc2[nH]c(CCCCCCCOC(=O)C(c3ccccc3)c3ccccc3)cc2c1 [Compound 676] |  | 5.52% |  | 1.46%
O=C(OCCCCCCCCc1cc2cc(C(F)(F)F)ccc2[nH]1)c1ccccc1-c1ccccc1 [Compound 614] | 8.32% |  | 20.35% | 
Fc1ccc2[nH]c(CCCCC[n+]3ccc4ccccc4c3)cc2c1 [Compound 560] | 46.91% |  | 98.43% | 
COC(=O)c1ccc2[nH]c(CCC[n+]3cccc4ccccc43)cc2c1 [Compound 486] | 4.97% | 22.28% |  | 
c1ccc(-c2ccc3[nH]c(CCCCC[n+]4ccc5ccccc5c4)cc3c2)cc1 [Compound 542] | 15.89% |  | 96.93% | 
Fc1cc(F)c2[nH]c(CCC[n+]3ccccc3)cc2c1 [Compound 300] | 11.79% | 6.20% |  | 
CC(=O)c1ccc2[nH]c(CCCCC[n+]3ccc4ccccc4c3)cc2c1 [Compound 584] | 68.79% |  | 96.07% | 
O=C(O)c1ccc2[nH]c(CCCCCC[n+]3ccccc3)cc2c1 [Compound 387] |  |  | 97.64% | 29.97%
COc1ccc2[nH]c(CCCCC[n+]3cccc4ccccc43)cc2c1 [Compound 482] | 17.07% | 4.39% |  | 
COC(=O)c1ccc2c(ccn2CCCCCCCCC[n+]2ccccc2)c1 [Compound 166] | 87.68% | 21.66% |  | 
COc1ccc2[nH]c(CCCCCCCC[n+]3ccc4ccccc4c3)cc2c1 [Compound 593] | 60.19% |  | 100.00% | 
O=[N+]([O-])c1ccc2[nH]c(CCC[n+]3cccc4ccccc43)cc2c1 [Compound 438] | 9.45% | 5.29% |  | 
Fc1ccc2[nH]c(CCC[n+]3ccccc3)cc2c1 [Compound 342] | 11.92% | 14.97% |  | 

Structure (SMILES) | % Inhibition [1, 3] | % Inhibition ([2]; concentration screened 10 uM) | % Inhibition ([2]; concentration screened 100 uM) | % Inhibition ([1]; compound at 0.1 mM (Table 314))
CC(=O)c1ccc2[nH]c(CCCCCC[n+]3ccccc3)cc2c1 [Compound 369] | 35.33% |  | 100.00% | 
c1ccc(-c2ccc3[nH]c(CCCCCCCC[n+]4ccc5ccccc5c4)cc3c2)cc1 [Compound 545] | 32.18% | 15.39% |  | 
O=C(c1ccccc1)c1ccc2[nH]c(CCCCC[n+]3ccccc3)cc2c1 [Compound 356] | 1.95% |  | 19.29% | 
CC(=O)c1ccc2[nH]c(CCCC[n+]3ccccc3)cc2c1 [Compound 367] | 9.72% | 5.64% and 5.22% |  | 
CCCCc1ccc2[nH]c(CCCC[n+]3ccc4ccccc4c3)cc2c1 [Compound 529] | 15.50% | 10.15% |  | 
c1ccc2c[n+](CCCCCCCCc3cc4ccccc4[nH]3)ccc2c1 [Compound 503] | 37.04% | 7.82% |  | 
CC(=O)c1ccc2[nH]c(CCCCC[n+]3ccccc3)cc2c1 [Compound 368] |  |  | 91.36% | 21.10%
O=[N+]([O-])c1ccc2[nH]c(CCCCCC[n+]3ccccc3)cc2c1 [Compound 333] |  |  | 100.00% | 26.29%
O=[N+]([O-])c1ccc2[nH]c(CCCCCC[n+]3ccc4ccccc4c3)cc2c1 [Compound 549] | 14.08% | 3.13% |  | 
O=C(c1ccccc1)c1ccc2[nH]c(CCCCC[n+]3cccc4ccccc43)cc2c1 [Compound 464] | 13.50% | 35.45% |  | 
Fc1cc(F)c2[nH]c(CCCCCC[n+]3ccc4ccccc4c3)cc2c1 [Compound 519] | 16.27% | 11.35% |  | 
COC(=O)c1ccc2[nH]c(CCCCCCCC[n+]3ccc4ccccc4c3)cc2c1 [Compound 599] | 19.31% |  | 44.14% | 
Fc1ccc2[nH]c(CCCCCCCC[n+]3cccc4ccccc43)cc2c1 [Compound 455] | 2.69% | 6.55% |  | 
CC(=O)c1ccc2[nH]c(CCCCCCCOC(=O)c3cccnc3)cc2c1 [Compound 673] | 1.81% | 1.50% |  | 
c1ccc(C(c2ccccc2)(c2ccccc2)c2ccc3[nH]c(CCCCCC[n+]4ccccc4)cc3c2)cc1 [Compound 339] | 42.87% |  | 100.00% | 
CC(C)c1ccc2[nH]c(CCCCOC(=O)c3ccccc3-c3ccccc3)cc2c1 [Compound 630] | 10.72% |  | 13.69% | 
CCCCc1ccc2[nH]c(CCCCCC[n+]3ccc4ccccc4c3)cc2c1 [Compound 531] | 36.55% | 8.77% |  | 
CC(=O)c1ccc2[nH]c(CCCCC[n+]3cccc4ccccc43)cc2c1 [Compound 476] | 17.49% | 11.14% |  | 
CC(=O)c1ccc2[nH]c(CCCCOC(=O)c3cccnc3)cc2c1 [Compound 672] | 2.63% | 1.57% |  | 
COc1ccc2c(ccn2CCCCCCOC(=O)Cc2ccc([N+](C)(C)C)cc2)c1 [Compound 742] | 28.20% | 2.13% |  | 
